This note sets out measurements from patent US8853424B2 (Japan Science and Technology Agency, priority 2008, dated 2014).

Experiment [1] concerns transglutaminase (TGase). Nature of the experiment: Measurement of TG (TGase inhibitory activity, monodansyl cadaverine / N,N-dimethylcasein fluorescence, FDSS 3000). It counts as biochemical. As for the experimental part:
For example, the method described in the Example can be performed.
The compound of the present invention (10 mM, 1 μL) was taken in a 96-well plate (Nunc, 96 Well Black Plate with Clear Bottom), an enzyme reaction solution (100 mM HEPES-NaOH, pH 7.5, 1 mM CaCl2, 20 μM monodansyl cadaverine, 0.05 mg/mL N,N-dimethylcasein, 5 μg/mL TGase) (0.1 ml) was added and the mixture was sufficiently mixed without making foams. The mixture was set on a fluorescence drug screening system FDSS 3000 (Hamamatsu Photonics K.K.), and changes in the fluorescence wavelength per unit time at 340 nm were measured, based on which the TGase inhibitory activity of the compound of the present invention was calculated. As a control, change in the fluorescence when 1 μL of DMSO (dimethyl sulfoxide) was added instead of the compound of the present invention was taken as 100, and TG50 was when the activity decreased to half due to the compound of the present invention.

The test system of experiment [2] is Truncated N-terminal huntington 150 Q-EGFP-Neuron 2a cells. The experiment in a line: Measurement of x-Fold (polyglutamine aggregation inhibitory activity). It counts as cell-based. As for the experimental part: In the present invention, the polyglutamine aggregation inhibitory activity (x-Fold) can be measured, for example, by the method described in the Example.
The number of the aggregated cells, and the total number of cells were counted by Array Scan V T1 (manufactured by Cellomics, Pittuburg, USA), and the ratio of the aggregated cells to the total number of cells was determined (x-Fold). […]

Where [3] appears, read: TGase activity with compound (10 mM, 1 μL in 0.1 ml enzyme reaction solution), DMSO control taken as 100.
Setting [4] is: TGase inhibitory activity value, Table 1.
Setting [5] is: polyglutamine aggregation inhibitory activity, Table 1.
Where [6] appears, read: ratio of aggregated cells to total number of cells, compound 20 μM, 20 hr, almost 1 without compound, smaller = stronger inhibition.

As for `NCCOB(c1ccccc1)c1cccc(B(OCCN)c2ccccc2)c1` [Example 120, 1,3-bis(phenyl-2-aminoethoxyboryl)benzene], the “TGase activity remaining (% of DMSO control = 100)” value in experiment [1] (setting [3]) and in experiment [1] (setting [4]) was 88 in each case. In addition, the x-Fold in experiment [2] (setting [5]) and in experiment [2] (setting [6]) was 1.08 in each case.
With `OB(c1ccccc1)c1ccccc1B(O)c1ccccc1` [Example 121, 1,2-bis(phenylhydroxyboryl)benzene], the “TGase activity remaining (% of DMSO control = 100)” value in experiment [1] (setting [3]) is 121; in experiment [1] (TGase inhibitory activity value, Table 1, listed as 583), 121. Also, the x-Fold in experiment [2] (polyglutamine aggregation inhibitory activity, Table 1, listed as 583) is 0.94; in experiment [2] (setting [6]) it was 0.94.
For `COc1ccc(C(OB(c2ccccc2)c2ccc(COCc3ccc(B(OC(c4ccc(OC)cc4)c4ccccn4)c4ccccc4)cc3)cc2)c2ccccn2)cc1` (centres unmarked) [Example 126, bis(phenyl 2-pyridyl-4-methoxyphenylmethoxyborylbenzyl)ether], in experiment [1] (setting [3]), the “TGase activity remaining (% of DMSO control = 100)” value came out at 81. In addition, the x-Fold in experiment [2] (setting [6]) came to 1.04.
Take `COc1ccc(C(OB(c2ccc(C)c(Cl)c2)c2ccc(C)c(Cl)c2)c2ccccn2)cc1` (centres unmarked) [Example 127, bis(3-chloro-4-methylphenyl) 2-pyridyl-4-methoxyphenylmethoxyborane]: the “TGase activity remaining (% of DMSO control = 100)” value in experiment [1] (setting [3]) and in experiment [1] (setting [4]) was 109 throughout. Further, the x-Fold in experiment [2] (setting [5]) and in experiment [2] (setting [6]) was 0.70 throughout.
As to `Cc1ccc(B(OCCN)c2ccc(B(OCCN)c3ccc(C)c(Cl)c3)cc2)cc1Cl` [Example 128, 1,4-bis(3-chloro-4-methylphenyl-2-aminoethoxyboryl)benzene], the “TGase activity remaining (% of DMSO control = 100)” value in experiment [1] (setting [3]) and in experiment [1] (setting [4]) was 143 each time. Besides, the x-Fold in experiment [2] (setting [5]) and in experiment [2] (setting [6]) was 0.93 throughout.
In the case of `NCC(=O)OB(c1ccccc1)c1ccc(Oc2ccc(B(OC(=O)CN)c3ccccc3)cc2)cc1` [Example 129, di((phenylglycine-O,N boryl)phenyl)ether], in experiment [1] (setting [3]), the “TGase activity remaining (% of DMSO control = 100)” value is reported as 101. For the same compound, in experiment [2] (setting [6]), the x-Fold was 0.78.
For `OB(c1ccccc1)c1cc(B(O)c2ccccc2)cc(B(O)c2ccccc2)c1` [Example 130, 1,3,5-tri(phenylhydroxyboryl)benzene], the “TGase activity remaining (% of DMSO control = 100)” value in experiment [1] (setting [3]) and in experiment [1] (setting [4]) was 116 in each case. Besides, the x-Fold in experiment [2] (setting [5]) and in experiment [2] (setting [6]) was 0.85 throughout.
With `c1ccc(B(OC(c2ccccc2)c2ccccn2)c2ccccc2COCc2ccccc2B(OC(c2ccccc2)c2ccccn2)c2ccccc2)cc1` (centres unmarked) [Example 133, (2-pyridyl-phenylmethoxyphenylboryl 2-benzyl)ether], the “TGase activity remaining (% of DMSO control = 100)” value in experiment [1] (setting [3]) and in experiment [1] (setting [4]) was 106 each time. Besides, the x-Fold in experiment [2] (setting [5]) and in experiment [2] (setting [6]) was 1.00 throughout.
On to `FC(F)(F)c1ccc(C(OB(c2ccccc2)c2ccccc2COCc2ccccc2B(OC(c2ccc(C(F)(F)F)cc2)c2ccccn2)c2ccccc2)c2ccccn2)cc1` (centres unmarked) [Example 134, (2-pyridyl-4-trifluoromethylphenylmethoxyphenylboryl 2-benzyl)ether], for which the “TGase activity remaining (% of DMSO control = 100)” value in experiment [1] (setting [3]) and in experiment [1] (setting [4]) was 94 in each case. In addition, the x-Fold in experiment [2] (setting [5]) and in experiment [2] (setting [6]) was 0.92 each time.
`OB(c1ccccc1)c1ccc(B(O)c2ccccc2)c2ccccc12` [Example 135, 1,4-bis(phenylhydroxyboryl)naphthalene]: the “TGase activity remaining (% of DMSO control = 100)” value in experiment [1] (setting [3]) and in experiment [1] (setting [4]) was 99 in each case. The x-Fold in experiment [2] (setting [5]) and in experiment [2] (setting [6]) was 1.03 in each case.
In the case of `NC(=O)CC(N)C(=O)OB(c1ccccc1)c1ccccc1` (centres unmarked) [Example 136, diphenyl(asparaginate-O,N)borane], the “TGase activity remaining (% of DMSO control = 100)” value in experiment [1] (setting [3]) came to 96; in experiment [1] (TGase inhibitory activity value, Table 1, listed as 871) it was 96. Further, the x-Fold turned out to be 0.98 in experiment [2] (polyglutamine aggregation inhibitory activity, Table 1, listed as 871) and 0.98 in experiment [2] (setting [6]).
As to `FC(F)(F)c1ccc(C(OB(c2ccccc2)c2ccc(COCc3ccc(B(OC(c4ccc(C(F)(F)F)cc4)c4ccccn4)c4ccccc4)cc3)cc2)c2ccccn2)cc1` (centres unmarked) [Example 138, bis(2-pyridyl-4-trifluoromethylphenylmethoxyphenylboryl 4-benzyl)ether], the “TGase activity remaining (% of DMSO control = 100)” value in experiment [1] (setting [3]) is listed as 96. Further, in experiment [2] (setting [6]), the x-Fold amounted to 0.99.
With `Cc1cc(B(O)c2ccc(COCc3ccc(B(O)c4ccc(Cl)c(C)c4)cc3)cc2)ccc1Cl` [Example 139, bis(4-chloro-3-methylphenylhydroxyboryl 4-benzyl)ether], the “TGase activity remaining (% of DMSO control = 100)” value in experiment [1] (setting [3]) is given as 122; in experiment [1] (TGase inhibitory activity value, Table 1, listed as 611), 122. Besides, the x-Fold in experiment [2] (polyglutamine aggregation inhibitory activity, Table 1, listed as 611) was 0.88; in experiment [2] (setting [6]), 0.88.
Take `OB(c1ccccc1)c1ccc(-c2ccc(B(O)c3ccccc3)cc2)cc1` [Example 140, 4,4′-phenylhydroxyboryl 4-biphenyl]: the “TGase activity remaining (% of DMSO control = 100)” value in experiment [1] (setting [3]) and in experiment [1] (setting [4]) was −72 throughout. In addition, the x-Fold in experiment [2] (setting [5]) and in experiment [2] (setting [6]) was 0.85 in each case.
For `OB(c1ccc(COCc2ccc(B(O)c3cccc4ccccc34)cc2)cc1)c1cccc2ccccc12` [Example 141, bis(4,4′-(1-naphthylhydroxyboryl)benzyl)ether], the “TGase activity remaining (% of DMSO control = 100)” value in experiment [1] (setting [3]) and in experiment [1] (setting [4]) was 97 throughout. Also, the x-Fold in experiment [2] (setting [5]) and in experiment [2] (setting [6]) was 0.92 throughout.
Take `OB(c1ccc(F)cc1)c1ccc(COCc2ccc(B(O)c3ccc(F)cc3)cc2)cc1` [Example 142, bis(4-fluorophenylhydroxyboryl 4-benzyl)ether]: the “TGase activity remaining (% of DMSO control = 100)” value in experiment [1] (setting [3]) and in experiment [1] (setting [4]) was 88 each time. The x-Fold in experiment [2] (setting [5]) and in experiment [2] (setting [6]) was 0.24 throughout.
With `OB(c1ccc(COCc2ccc(B(O)c3ccc(C(F)(F)F)cc3)cc2)cc1)c1ccc(C(F)(F)F)cc1` [Example 143, bis(4-trifluoromethylphenylhydroxyboryl 4-benzyl)ether], the “TGase activity remaining (% of DMSO control = 100)” value in experiment [1] (setting [3]) and in experiment [1] (setting [4]) was 118 throughout. Also, the x-Fold in experiment [2] (setting [5]) and in experiment [2] (setting [6]) was 0.90 each time.
Turning to `Cc1ccc(B(O)c2ccc(COCc3ccc(B(O)c4ccc(C)c(Cl)c4)cc3)cc2)cc1Cl` [Example 144, bis(3-chloro-4-methylphenylhydroxyboryl 4-benzyl)ether], the “TGase activity remaining (% of DMSO control = 100)” value in experiment [1] (setting [3]) is listed as 99. Further, the x-Fold in experiment [2] (setting [6]) amounted to 0.87.
Consider `OB(O)c1ccc(F)c(Cl)c1` [Example 145, (3-chloro-4-fluorophenyl)boronic acid], for which the “TGase activity remaining (% of DMSO control = 100)” value in experiment [1] (setting [3]) and in experiment [1] (setting [4]) was 97 each time. Also, the x-Fold in experiment [2] (setting [5]) and in experiment [2] (setting [6]) was 0.91 throughout.
For the compound `Cc1cc(B(OCCN)c2ccccc2)ccc1B(OCCN)c1ccccc1` [Example 146, 1,4-bis(phenyl-2-aminoethoxyboryl) 2-methylbenzene], the “TGase activity remaining (% of DMSO control = 100)” value in experiment [1] (setting [3]) and in experiment [1] (setting [4]) was 91 throughout. The x-Fold in experiment [2] (setting [5]) and in experiment [2] (setting [6]) was 1.02 each time.
As to `NCCOB(c1ccccc1)c1ccccc1COCc1ccccc1B(OCCN)c1ccccc1` [Example 148, bis(2,2′-(phenyl-2-aminoethoxyboryl)benzyl)ether], the “TGase activity remaining (% of DMSO control = 100)” value in experiment [1] (setting [3]) and in experiment [1] (setting [4]) was 68 each time. Further, the x-Fold in experiment [2] (setting [5]) and in experiment [2] (setting [6]) was 1.00 in each case.
With `FC(F)(F)c1ccc(C(OB(c2ccccc2)c2ccc(COCc3ccc(B(OC(c4ccc(C(F)(F)F)cc4)c4ccccn4)c4ccccc4)cc3)cc2)c2ccccn2)cc1` (centres unmarked) [Example 149, 4,4′-di((phenyl 1-(pyridin-2-yl)-1-trifluoromethylphenylmethoxyboryl)benzyl)ether], the “TGase activity remaining (% of DMSO control = 100)” value in experiment [1] (setting [3]) was found to be 96. The x-Fold in experiment [2] (setting [6]) was 0.99.
Consider `Nc1ccccc1SB(c1ccccc1)c1ccccc1` [Example 150, diphenyl-2-aminophenylthioborane], for which the “TGase activity remaining (% of DMSO control = 100)” value in experiment [1] (setting [3]) and in experiment [1] (setting [4]) was 2 in each case. Further, the x-Fold in experiment [2] (setting [5]) and in experiment [2] (setting [6]) was 0 each time.
Regarding `NCCSB(c1ccccc1)c1ccccc1` [Example 151, 2-aminoethylthiodiphenylborane], the “TGase activity remaining (% of DMSO control = 100)” value in experiment [1] (setting [3]) and in experiment [1] (setting [4]) was 33 throughout. For the same compound, the x-Fold in experiment [2] (setting [5]) and in experiment [2] (setting [6]) was 0.87 in each case.
